Test results reported in the NIST ThermoML archive (doi:10.1016/j.fluid.2008.03.004).

Assay: xn = mol fraction of the nth substance listed
Details: 101 kPa, Liquid; for speed of sound: Sing-around technique in a fixed-path interferometer

CCOC(C)(C)C [2-ethoxy-2-methylpropane] + Cc1ccccc1C
Details | mass density [kg/m3] | speed of sound [m/s]
288.15 K, x1 = 0.055 | 875.654 | 1371.2
288.15 K, x1 = 0.098 | 870.017 | 1357.8
288.15 K, x1 = 0.201 | 855.684 | 1324.8
288.15 K, x1 = 0.307 | 840.866 | 1290.1
288.15 K, x1 = 0.4 | 827.772 | 1261.6
288.15 K, x1 = 0.502 | 813.516 | 1228.9
288.15 K, x1 = 0.601 | 800.311 | 1199
288.15 K, x1 = 0.661 | 791.943 | 1180.1
288.15 K, x1 = 0.803 | 772.557 | 1137.4
288.15 K, x1 = 0.895 | 759.896 | 1110.2
288.15 K, x1 = 0.947 | 752.872 | 1095
288.15 K, x1 = 1 | 744.955 | 1076.4
290.65 K, x1 = 0.055 | 873.542 | 1360.8
290.65 K, x1 = 0.098 | 867.884 | 1347.3
290.65 K, x1 = 0.201 | 853.503 | 1314.3
290.65 K, x1 = 0.307 | 838.637 | 1279.4
290.65 K, x1 = 0.4 | 825.503 | 1251
290.65 K, x1 = 0.502 | 811.198 | 1218.2
290.65 K, x1 = 0.601 | 797.952 | 1188.2
290.65 K, x1 = 0.661 | 789.556 | 1169.2
290.65 K, x1 = 0.803 | 770.105 | 1126.4
290.65 K, x1 = 0.895 | 757.404 | 1099.4
290.65 K, x1 = 0.947 | 750.354 | 1084.5
290.65 K, x1 = 1 | 742.482 | 1065.1
293.15 K, x1 = 0.055 | 871.419 | 1350.4
293.15 K, x1 = 0.098 | 865.74 | 1336.8
293.15 K, x1 = 0.201 | 851.313 | 1303.8
293.15 K, x1 = 0.307 | 836.397 | 1268.7
293.15 K, x1 = 0.4 | 823.223 | 1240.4
293.15 K, x1 = 0.502 | 808.871 | 1207.4
293.15 K, x1 = 0.601 | 795.578 | 1177.3
293.15 K, x1 = 0.661 | 787.156 | 1158.3
293.15 K, x1 = 0.803 | 767.641 | 1115.4
293.15 K, x1 = 0.895 | 754.895 | 1088.5
293.15 K, x1 = 0.947 | 747.821 | 1073.5
293.15 K, x1 = 1 | 739.947 | 1053.7
295.65 K, x1 = 0.055 | 869.295 | 1339.8
295.65 K, x1 = 0.098 | 863.594 | 1326.3
295.65 K, x1 = 0.201 | 849.119 | 1293.2
295.65 K, x1 = 0.307 | 834.156 | 1257.9
295.65 K, x1 = 0.4 | 820.937 | 1229.6
295.65 K, x1 = 0.502 | 806.537 | 1196.5
295.65 K, x1 = 0.601 | 793.199 | 1166.3
295.65 K, x1 = 0.661 | 784.75 | 1147.3
295.65 K, x1 = 0.803 | 765.167 | 1104.3
295.65 K, x1 = 0.895 | 752.377 | 1077.3
295.65 K, x1 = 0.947 | 745.278 | 1062.5
295.65 K, x1 = 1 | 737.374 | 1042.2
298.15 K, x1 = 0.055 | 867.167 | 1329.3
298.15 K, x1 = 0.098 | 861.446 | 1315.8
298.15 K, x1 = 0.201 | 846.922 | 1282.7
298.15 K, x1 = 0.307 | 831.91 | 1247.3
298.15 K, x1 = 0.4 | 818.651 | 1218.9
298.15 K, x1 = 0.502 | 804.2 | 1185.7
298.15 K, x1 = 0.601 | 790.817 | 1155.5
298.15 K, x1 = 0.661 | 782.341 | 1136.4
298.15 K, x1 = 0.803 | 762.689 | 1093.3
298.15 K, x1 = 0.895 | 749.853 | 1066.3
298.15 K, x1 = 0.947 | 742.726 | 1051.4
298.15 K, x1 = 1 | 734.806 | 1031
300.65 K, x1 = 0.055 | 865.039 | 1318.9
300.65 K, x1 = 0.098 | 859.296 | 1305.5
300.65 K, x1 = 0.201 | 844.725 | 1272.3
300.65 K, x1 = 0.307 | 829.661 | 1236.7
300.65 K, x1 = 0.4 | 816.36 | 1208.3
300.65 K, x1 = 0.502 | 801.859 | 1175
300.65 K, x1 = 0.601 | 788.431 | 1144.7
300.65 K, x1 = 0.661 | 779.923 | 1125.5
300.65 K, x1 = 0.803 | 760.203 | 1082.3
300.65 K, x1 = 0.895 | 747.321 | 1055.2
300.65 K, x1 = 0.947 | 740.169 | 1040.3
300.65 K, x1 = 1 | 732.225 | 1019.8
303.15 K, x1 = 0.055 | 862.904 | 1308.4
303.15 K, x1 = 0.098 | 857.143 | 1295.2
303.15 K, x1 = 0.201 | 842.523 | 1262
303.15 K, x1 = 0.307 | 827.409 | 1226.2
303.15 K, x1 = 0.4 | 814.064 | 1197.8
303.15 K, x1 = 0.502 | 799.512 | 1164.3
303.15 K, x1 = 0.601 | 786.037 | 1133.9
303.15 K, x1 = 0.661 | 777.502 | 1114.7
303.15 K, x1 = 0.803 | 757.711 | 1071.3
303.15 K, x1 = 0.895 | 744.78 | 1044.2
303.15 K, x1 = 0.947 | 737.602 | 1029.1
303.15 K, x1 = 1 | 729.647 | 1008.6
305.65 K, x1 = 0.055 | – | 1298
305.65 K, x1 = 0.098 | – | 1285
305.65 K, x1 = 0.201 | – | 1251.6
305.65 K, x1 = 0.307 | – | 1215.8
305.65 K, x1 = 0.4 | – | 1187.3
305.65 K, x1 = 0.502 | – | 1153.6
305.65 K, x1 = 0.601 | – | 1123.1
305.65 K, x1 = 0.661 | – | 1103.9
305.65 K, x1 = 0.803 | – | 1060.3
305.65 K, x1 = 0.895 | – | 1033.2
305.65 K, x1 = 0.947 | – | 1018
305.65 K, x1 = 1 | – | 997.52
